Reference: US20250296953A1, “3,4-THIAZOLO-STEROIDS AND METHODS OF MAKING AND USING THE SAME” (Arkansas State University - Jonesboro, priority 2018, published 2025)
Where two headings read alike, the source gives them in different places.

Assays:
SK-MEL-25 = experiment: Melanoma cytotoxicity assay (resazurin); format: cell-based
Summary of the method: (§1)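 Viability read by resazurin fluorescence (ex 544, em 590 nm) after 6 h, following 24 h compound exposure of cells plated 24 h earlier (~4000/well). Triplicate means, minus medium blank, divided by DMSO control; IC50 derived from sigmoidal dose-response curves.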

SK-MEL-28 = experiment: Melanoma cytotoxicity assay (resazurin); format: cell-based
Summary of the method: as §1

LOX IMVI = experiment: Melanoma cytotoxicity assay (resazurin); format: cell-based
Summary of the method: as §1

SK-MEL-5 = experiment: Melanoma cytotoxicity assay (resazurin); format: cell-based
Summary of the method: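 ~4000 cells/well, 24 h attach, 37° C/5% CO2; cpd triplicate, 24 h; resazurin 6 h; fluor 544/590 nm. % viability vs DMSO after media-blank subtraction; IC50 from dilution series, sigmoidal fit.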

gliosarcoma (SF-539) = experiment: NCI 60 five dose screen
SF-295 = experiment: NCI 60 one dose screen; format: cell-based, human; conditions: one dose; CNS Cancer; SF-295
[1] = system: 60 different human tumor cell lines; experiment: cells
MALME-3M = experiment: Melanoma cytotoxicity assay (resazurin); format: cell-based; conditions: human, 24 h
Summary of the method: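 MALME-3M cells (~4000/well) seeded 24 h, then exposed to compound in triplicate for 24 h at 37° C, 5% CO2. Resazurin added for 6 h, fluorescence read at 544/590 nm; background-subtracted viability normalised to DMSO wells. IC50 from sigmoidal fit of serial dilutions.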

Compound: (1S,2R,13R,14S,18S)-7-(3-fluoroanilino)-2,18-dimethyl-6-thia-8-azapentacyclo[11.7.0.02,10.05,9.014,18]icosa-5(9),7,10-trien-17-one [IIa.8]
- SK-MEL-25 (% inhibition) (SK-MEL-25; SK-MEL-25 melanoma cells, 24 hours with compound, resazurin, concentration not given): 88%
- IC50 (SK-MEL-25; SK-MEL-25 melanoma cells, 24 hours, resazurin, read-out: SK-MEL-25 (IC50)): 10 µM
- SK-MEL-28 (% inhibition) (SK-MEL-28; SK-MEL-28 melanoma cells, 24 hours with compound, resazurin, concentration not given): 90%
- IC50 (SK-MEL-28; SK-MEL-28 melanoma cells, 24 hours, resazurin): > 20 µM
- LOX-IMVI (% inhibition) (LOX IMVI; LOX IMVI melanoma cells, 24 hours with compound, resazurin, concentration not given): 79%
- IC50 (LOX IMVI; LOX IMVI melanoma cells, 24 hours, resazurin): > 20 µM
- SK-MEL-5 (% inhibition) (SK-MEL-5; SK-MEL-5 melanoma cells, 24 hours with compound, resazurin, concentration not given): 84%
- GI50 (gliosarcoma (SF-539); SF-539 (CNS Cancer), five dose): 1.34 µM
- TGI (gliosarcoma (SF-539); SF-539 (CNS Cancer), five dose): 2.94E−6
- GI50 (gliosarcoma (SF-539); gliosarcoma SF-539): 1.34 µM
- CC50 (gliosarcoma (SF-539); read-out: LC50, SF-539 (CNS Cancer), five dose): 6.45 µM
- Growth Percent (SF-295): −18.79%

Compound: C[C@]12CC[C@H]3[C@@H](CC=C4c5sc(Nc6ccccc6)nc5CC[C@@]43C)[C@@H]1CC[C@@H]2O [IIIa.10, (1S,2R,13R,14S,17S,18S)-7-anilino-2,18-dimethyl-8-thia-6-azapentacyclo[11.7.0.02,10.05,9.014,18]icosa-5(9),6,10-trien-17-ol]
- GI50 ([1]; 60 cell): 2.37 µM
- CC50 ([1]; 60 cell, read-out: LC50): 38.4 µM
- GI50 ([1]; 786-0): 1.22 µM
- CC50 ([1]; 786-0, read-out: LC50): 8.87 µM
- GI50 ([1]; A498): 2.16 µM
- CC50 ([1]; A498, read-out: LC50): 20.7 µM
- GI50 ([1]; A549): 2.41 µM
- CC50 ([1]; A549, read-out: LC50): 46.2 µM
- GI50 ([1]; ACHN): 1.71 µM
- CC50 ([1]; ACHN, read-out: LC50): 6.19 µM
- GI50 ([1]; BT-549): 1.38 µM
- CC50 ([1]; BT-549, read-out: LC50): 32.6 µM
- GI50 ([1]; CAKI-1): 2.32 µM
- CC50 ([1]; CAKI-1, read-out: LC50): 19.2 µM
- GI50 ([1]; CCRF-CEM): 1.6 µM
- CC50 ([1]; CCRF-CEM, read-out: LC50): > 100 µM
- GI50 ([1]; COLO 205): 2.45 µM
- CC50 ([1]; COLO 205, read-out: LC50): 50.8 µM
- GI50 ([1]; DU-145): 1.7 µM
- CC50 ([1]; DU-145, read-out: LC50): 7.68 µM
- GI50 ([1]; EKVX): 2.75 µM
- CC50 ([1]; EKVX, read-out: LC50): 63.8 µM
- GI50 ([1]; HCC 2998): 1.97 µM
- CC50 ([1]; HCC 2998, read-out: LC50): 6.42 µM
- GI50 ([1]; HCT-15): 1.6 µM
- CC50 ([1]; HCT-15, read-out: LC50): 30.6 µM
- GI50 ([1]; HCT-116): 1.51 µM
- CC50 ([1]; HCT-116, read-out: LC50): 6.01 µM
- GI50 ([1]; HL-60): 2.02 µM
- CC50 ([1]; HL-60, read-out: LC50): > 100 µM
- GI50 ([1]; HOP-62): 2.47 µM
- CC50 ([1]; HOP-62, read-out: LC50): > 100 µM
- GI50 ([1]; HOP-92): 2.84 µM
- CC50 ([1]; HOP-92, read-out: LC50): 27.4 µM
- GI50 ([1]; HT-29): 2.13 µM
- GI50 ([1]; Hs-578T): 2.16 µM
- CC50 ([1]; Hs-578T, read-out: LC50): > 100 µM
- GI50 ([1]; IGROV-1): 2.78 µM
- CC50 ([1]; IGROV-1, read-out: LC50): > 100 µM
- GI50 ([1]; K562): 2.45 µM
- CC50 ([1]; K562, read-out: LC50): > 100 µM
- GI50 ([1]; KM12): 1.68 µM
- CC50 ([1]; KM12, read-out: LC50): 5.77 µM
- GI50 ([1]; LOX IMVI): 1.33 µM
- CC50 ([1]; LOX IMVI, read-out: LC50): 5.78 µM
- GI50 ([1]; M14): 1.84 µM
- CC50 ([1]; M14, read-out: LC50): 9.9 µM
- GI50 ([1]; MCF7): 1.8 µM
- CC50 ([1]; MCF7, read-out: LC50): > 100 µM
- GI50 ([1]; MDA-MB-231): 1.99 µM
- CC50 ([1]; MDA-MB-231, read-out: LC50): 12.8 µM
- GI50 ([1]; MDA-MB-435): 2.25 µM
- CC50 ([1]; MDA-MB-435, read-out: LC50): 29.7 µM
- GI50 ([1]; MDA-MB-468): 1.72 µM
- CC50 ([1]; MDA-MB-468, read-out: LC50): 6.66 µM
- GI50 ([1]; MOLT-4): 1.87 µM
- CC50 ([1]; MOLT-4, read-out: LC50): > 100 µM
- GI50 ([1]; Malme-3M): 2.19 µM
- CC50 ([1]; Malme-3M, read-out: LC50): 21.9 µM
- GI50 ([1]; NCI-H23): 2.03 µM
- CC50 ([1]; NCI-H23, read-out: LC50): 23.7 µM
- GI50 ([1]; NCI-H226): 2.4 µM
- CC50 ([1]; NCI-H226, read-out: LC50): > 100 µM
- GI50 ([1]; NCI-H322M): 2.88 µM
- CC50 ([1]; NCI-H322M, read-out: LC50): 35.2 µM
- GI50 ([1]; NCI-H460): 1.95 µM
- CC50 ([1]; NCI-H460, read-out: LC50): 8.37 µM
- GI50 ([1]; NCI-H522): 1.9 µM
- CC50 ([1]; NCI-H522, read-out: LC50): 14.3 µM
- GI50 ([1]; NCI/ADR-RES): 3.39 µM
- CC50 ([1]; NCI/ADR-RES, read-out: LC50): > 100 µM
- GI50 ([1]; OVCAR-3): 1.28 µM
- CC50 ([1]; OVCAR-3, read-out: LC50): 5.37 µM
- GI50 ([1]; OVCAR-4): 3.13 µM
- CC50 ([1]; OVCAR-4, read-out: LC50): 56.8 µM
- GI50 ([1]; OVCAR-5): 2.68 µM
- CC50 ([1]; OVCAR-5, read-out: LC50): 34 µM
- GI50 ([1]; OVCAR-8): 3.43 µM
- CC50 ([1]; OVCAR-8, read-out: LC50): 93.7 µM
- GI50 ([1]; RXF 393): 0.798 µM
- CC50 ([1]; RXF 393, read-out: LC50): 5.81 µM
- GI50 ([1]; SF-268): 1.66 µM
- CC50 ([1]; SF-268, read-out: LC50): 6.62 µM
- GI50 ([1]; SK-MEL-2): 2.51 µM
- CC50 ([1]; SK-MEL-2, read-out: LC50): 22.2 µM
- GI50 ([1]; SK-MEL-5): 1.82 µM
- CC50 ([1]; SK-MEL-5, read-out: LC50): 6.4 µM
- GI50 ([1]; SK-MEL-28): 1.68 µM
- CC50 ([1]; SK-MEL-28, read-out: LC50): 9.49 µM
- GI50 ([1]; SK-OV-3): 5.16 µM
- CC50 ([1]; SK-OV-3, read-out: LC50): 51.2 µM
- GI50 ([1]; SN12C): 1.65 µM
- CC50 ([1]; SN12C, read-out: LC50): 6.53 µM
- GI50 ([1]; SNB-19): 1.86 µM
- CC50 ([1]; SNB-19, read-out: LC50): 7.65 µM
- GI50 ([1]; SNB-75): 1.49 µM
- CC50 ([1]; SNB-75, read-out: LC50): 6.24 µM
- GI50 ([1]; SW-620): 2.27 µM
- CC50 ([1]; SW-620, read-out: LC50): 23.2 µM
- GI50 ([1]; T47D): 2.41 µM
- CC50 ([1]; T47D, read-out: LC50): > 100 µM
- GI50 ([1]; TK-10): 2.91 µM
- CC50 ([1]; TK-10, read-out: LC50): 23 µM
- GI50 ([1]; U-251): 1.36 µM
- CC50 ([1]; U-251, read-out: LC50): 5.7 µM
- GI50 ([1]; UACC-62): 1.83 µM
- CC50 ([1]; UACC-62, read-out: LC50): 8.55 µM
- GI50 ([1]; UACC-257): 2.54 µM
- CC50 ([1]; UACC-257, read-out: LC50): 30.5 µM
- GI50 ([1]; UO-31): 1.67 µM
- CC50 ([1]; UO-31, read-out: LC50): 5.56 µM
- MALME-3M (% viability) (MALME-3M): 68.28%
- IC50 (SK-MEL-25; Homo sapiens, SK-MEL-25 melanoma cells (head prints SK-25), read-out: SK-25 IC50): > 20 µM
- SK-MEL-25 (% viability) (SK-MEL-25; human, 24 h): 13.15%
- SK-MEL-28 (% viability) (SK-MEL-28; human, 24 h): 13.79%
- LOX-IMVI (% viability) (LOX IMVI; human, 24 h): 27%
- SK-MEL-5 (% viability) (SK-MEL-5; human, 24 h): 14.72%
- GI50 (gliosarcoma (SF-539); Homo sapiens, SF-539): 1.19 µM
- CC50 (gliosarcoma (SF-539); Homo sapiens, SF-539, read-out: LC50): 5.74 µM
- TGI (gliosarcoma (SF-539); SF-539 (CNS Cancer), five dose): 2.62E−6
- Growth Percent (SF-295): 7.36%
